The values that follow come from ChEMBL document CHEMBL5465560, “Selectivity Literature for EUbOPEN Chemogenomic Library” (2024).

Assay [1] concerns the target Receptor-type tyrosine-protein kinase FLT3 (Homo sapiens) (UniProt P36888). Briefly: Selectivity interaction (KinomeScan (DiscoverX)) EUB0000092b FLT3. Particulars: at 10 µM.
The target in assay [2] is Platelet-derived growth factor receptor alpha (Homo sapiens, UniProt P16234). Briefly: Selectivity interaction (Kinase screening (Upstate/Millipore)) EUB0000604a PDGFRA.
Assay [3] deals with T1, Histone-lysine N-methyltransferase SMYD3 (Homo sapiens) (UniProt Q9H7B4).
T1 sequence (whole entry): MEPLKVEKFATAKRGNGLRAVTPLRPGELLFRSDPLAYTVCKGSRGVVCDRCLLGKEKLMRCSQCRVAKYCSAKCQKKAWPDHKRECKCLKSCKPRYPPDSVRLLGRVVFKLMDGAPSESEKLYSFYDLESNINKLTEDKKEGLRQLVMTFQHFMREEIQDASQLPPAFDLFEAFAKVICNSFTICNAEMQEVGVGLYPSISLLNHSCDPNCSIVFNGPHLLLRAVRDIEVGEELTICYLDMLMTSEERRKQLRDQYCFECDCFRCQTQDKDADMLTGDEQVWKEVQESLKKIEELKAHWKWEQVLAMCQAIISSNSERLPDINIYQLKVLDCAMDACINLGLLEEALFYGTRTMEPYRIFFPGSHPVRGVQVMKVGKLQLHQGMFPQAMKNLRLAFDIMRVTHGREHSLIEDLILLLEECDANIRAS
Briefly: Selectivity interaction (Transferase panel (protein, RNA, and DNA methyltransferases. and EP300 (acetyltransferase))) EUB0000270b SMYD3.

The target of assay [4] is Phosphorylase b kinase gamma catalytic chain, skeletal muscle/heart isoform (Homo sapiens) (UniProt Q16816). Put plainly: Selectivity interaction (KinomeScan (DiscoverX)) EUB0000045b PHKG1.
Assay [5] concerns the target Serine/threonine-protein kinase SIK3 (Homo sapiens) (UniProt Q9Y2K2). Put plainly: Selectivity interaction (KinomeScan (DiscoverX)) EUB0000607a SIK3. The note with it: at 10 µM.
Assay [6] deals with Serine/threonine-protein kinase PAK 2 (Homo sapiens) (UniProt Q13177). Put plainly: Selectivity interaction (KinomeScan (DiscoverX)) EUB0000607a PAK2. The note with it: at 10 µM.
Assay [7] addresses T2, Myosin-IIIb (Homo sapiens) (UniProt Q8WXR4).
T2 sequence (whole entry): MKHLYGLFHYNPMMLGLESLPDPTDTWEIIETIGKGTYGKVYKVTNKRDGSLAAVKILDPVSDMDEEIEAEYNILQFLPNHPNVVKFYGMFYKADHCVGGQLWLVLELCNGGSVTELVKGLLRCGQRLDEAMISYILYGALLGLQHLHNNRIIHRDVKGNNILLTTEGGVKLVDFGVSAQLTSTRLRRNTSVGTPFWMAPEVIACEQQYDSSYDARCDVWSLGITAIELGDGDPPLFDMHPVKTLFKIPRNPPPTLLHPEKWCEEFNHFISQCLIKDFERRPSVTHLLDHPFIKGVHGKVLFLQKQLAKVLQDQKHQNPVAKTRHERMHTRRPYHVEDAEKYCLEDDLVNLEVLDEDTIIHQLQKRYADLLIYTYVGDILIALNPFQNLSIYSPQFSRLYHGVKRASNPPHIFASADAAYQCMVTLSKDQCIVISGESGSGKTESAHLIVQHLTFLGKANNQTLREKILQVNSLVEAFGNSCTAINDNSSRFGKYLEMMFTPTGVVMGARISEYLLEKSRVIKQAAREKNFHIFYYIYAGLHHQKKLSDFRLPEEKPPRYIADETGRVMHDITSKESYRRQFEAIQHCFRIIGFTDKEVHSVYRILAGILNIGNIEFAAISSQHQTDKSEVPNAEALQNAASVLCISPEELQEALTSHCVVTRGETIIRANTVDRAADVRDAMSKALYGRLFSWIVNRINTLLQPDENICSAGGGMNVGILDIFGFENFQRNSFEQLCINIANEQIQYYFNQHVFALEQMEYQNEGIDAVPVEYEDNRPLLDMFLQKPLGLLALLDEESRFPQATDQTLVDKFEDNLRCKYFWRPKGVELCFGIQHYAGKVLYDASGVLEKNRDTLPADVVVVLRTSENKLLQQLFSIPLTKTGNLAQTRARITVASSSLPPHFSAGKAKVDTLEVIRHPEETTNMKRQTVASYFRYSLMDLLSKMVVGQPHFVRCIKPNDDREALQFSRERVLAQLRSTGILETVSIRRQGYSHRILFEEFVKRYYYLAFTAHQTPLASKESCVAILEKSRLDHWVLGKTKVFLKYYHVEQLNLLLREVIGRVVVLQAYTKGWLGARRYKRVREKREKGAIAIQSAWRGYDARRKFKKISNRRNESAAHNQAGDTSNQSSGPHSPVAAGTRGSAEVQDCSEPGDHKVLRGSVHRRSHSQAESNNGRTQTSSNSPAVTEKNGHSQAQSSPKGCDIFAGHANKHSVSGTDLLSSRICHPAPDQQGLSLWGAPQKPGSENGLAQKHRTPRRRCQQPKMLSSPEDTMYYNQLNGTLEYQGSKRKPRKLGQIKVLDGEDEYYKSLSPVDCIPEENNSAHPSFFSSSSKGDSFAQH
Briefly: Selectivity interaction (KinomeScan (DiscoverX)) EUB0000229b MYO3B. The note with it: at 10 µM.

The target in assay [8] is SRSF protein kinase 2 (Homo sapiens) (UniProt P78362). Put plainly: Selectivity interaction (KinomeScan (DiscoverX)) EUB0001619a SRPK2. Particulars: at 1 µM.
SRSF protein kinase 2 (Homo sapiens), sequence (P78362 whole entry, looked up): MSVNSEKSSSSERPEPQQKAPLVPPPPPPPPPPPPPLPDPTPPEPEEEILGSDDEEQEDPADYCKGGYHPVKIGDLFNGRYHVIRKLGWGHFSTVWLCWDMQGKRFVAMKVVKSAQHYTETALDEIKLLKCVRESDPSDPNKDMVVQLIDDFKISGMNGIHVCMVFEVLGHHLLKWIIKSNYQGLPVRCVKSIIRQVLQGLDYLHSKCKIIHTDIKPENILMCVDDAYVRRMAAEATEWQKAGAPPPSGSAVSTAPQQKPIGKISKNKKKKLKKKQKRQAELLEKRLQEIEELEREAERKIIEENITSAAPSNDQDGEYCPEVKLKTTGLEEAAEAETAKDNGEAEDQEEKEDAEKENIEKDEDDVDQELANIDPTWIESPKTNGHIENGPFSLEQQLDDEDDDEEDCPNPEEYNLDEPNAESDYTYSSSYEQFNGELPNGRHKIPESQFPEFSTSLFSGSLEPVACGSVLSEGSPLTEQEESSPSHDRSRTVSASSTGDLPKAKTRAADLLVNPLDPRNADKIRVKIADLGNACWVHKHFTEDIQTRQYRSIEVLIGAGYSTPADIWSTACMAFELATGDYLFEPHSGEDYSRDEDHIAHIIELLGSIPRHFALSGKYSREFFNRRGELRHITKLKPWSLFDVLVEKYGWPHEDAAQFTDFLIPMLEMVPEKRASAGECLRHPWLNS

Phosphorylase b kinase gamma catalytic chain, skeletal muscle/heart isoform (Homo sapiens), sequence (Q16816 whole entry, looked up, canonical isoform): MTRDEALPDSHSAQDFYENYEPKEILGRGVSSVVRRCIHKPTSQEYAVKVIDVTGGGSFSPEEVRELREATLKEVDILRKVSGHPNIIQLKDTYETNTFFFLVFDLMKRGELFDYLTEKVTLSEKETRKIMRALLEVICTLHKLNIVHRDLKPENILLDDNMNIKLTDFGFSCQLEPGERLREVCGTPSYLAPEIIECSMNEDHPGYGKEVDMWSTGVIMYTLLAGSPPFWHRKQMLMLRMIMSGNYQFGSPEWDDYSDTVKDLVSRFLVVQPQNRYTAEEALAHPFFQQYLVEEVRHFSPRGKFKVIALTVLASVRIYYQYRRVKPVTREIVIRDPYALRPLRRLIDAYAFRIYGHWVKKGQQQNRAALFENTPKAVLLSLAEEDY
Serine/threonine-protein kinase SIK3 (Homo sapiens), sequence (Q9Y2K2 whole entry, looked up): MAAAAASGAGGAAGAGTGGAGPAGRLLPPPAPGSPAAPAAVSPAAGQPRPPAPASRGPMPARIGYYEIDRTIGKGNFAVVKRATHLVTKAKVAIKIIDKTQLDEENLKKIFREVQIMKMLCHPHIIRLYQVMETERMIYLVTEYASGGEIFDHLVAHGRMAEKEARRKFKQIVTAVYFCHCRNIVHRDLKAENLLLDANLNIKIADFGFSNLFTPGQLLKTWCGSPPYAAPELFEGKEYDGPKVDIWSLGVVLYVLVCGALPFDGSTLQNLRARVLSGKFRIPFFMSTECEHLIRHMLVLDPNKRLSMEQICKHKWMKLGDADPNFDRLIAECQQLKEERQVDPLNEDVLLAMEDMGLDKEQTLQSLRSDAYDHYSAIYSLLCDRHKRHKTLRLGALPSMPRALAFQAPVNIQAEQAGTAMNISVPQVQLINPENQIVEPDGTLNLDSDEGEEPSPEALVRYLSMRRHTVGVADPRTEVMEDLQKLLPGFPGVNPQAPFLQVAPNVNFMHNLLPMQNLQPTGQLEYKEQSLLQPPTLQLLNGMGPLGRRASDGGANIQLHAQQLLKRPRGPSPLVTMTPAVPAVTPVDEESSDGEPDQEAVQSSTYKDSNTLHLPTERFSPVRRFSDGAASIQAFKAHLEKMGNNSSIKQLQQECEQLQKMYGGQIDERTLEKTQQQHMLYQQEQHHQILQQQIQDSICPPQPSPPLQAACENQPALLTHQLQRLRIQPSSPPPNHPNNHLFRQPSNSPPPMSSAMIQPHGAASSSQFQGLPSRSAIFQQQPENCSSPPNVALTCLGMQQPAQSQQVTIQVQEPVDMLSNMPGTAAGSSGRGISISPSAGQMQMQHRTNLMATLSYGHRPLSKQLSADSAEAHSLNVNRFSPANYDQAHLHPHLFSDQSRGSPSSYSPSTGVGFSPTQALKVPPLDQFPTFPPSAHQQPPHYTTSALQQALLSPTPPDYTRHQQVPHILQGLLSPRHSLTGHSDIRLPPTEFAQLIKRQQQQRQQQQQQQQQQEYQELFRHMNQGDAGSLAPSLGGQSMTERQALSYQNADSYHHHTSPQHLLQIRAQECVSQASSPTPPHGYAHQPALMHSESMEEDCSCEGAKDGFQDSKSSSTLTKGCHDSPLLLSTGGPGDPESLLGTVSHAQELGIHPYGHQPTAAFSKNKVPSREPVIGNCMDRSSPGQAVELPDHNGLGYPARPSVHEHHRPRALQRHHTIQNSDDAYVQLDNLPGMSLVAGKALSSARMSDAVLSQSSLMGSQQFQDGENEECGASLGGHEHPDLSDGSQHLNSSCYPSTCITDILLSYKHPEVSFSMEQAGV
Receptor-type tyrosine-protein kinase FLT3 (Homo sapiens), sequence (P36888 whole entry): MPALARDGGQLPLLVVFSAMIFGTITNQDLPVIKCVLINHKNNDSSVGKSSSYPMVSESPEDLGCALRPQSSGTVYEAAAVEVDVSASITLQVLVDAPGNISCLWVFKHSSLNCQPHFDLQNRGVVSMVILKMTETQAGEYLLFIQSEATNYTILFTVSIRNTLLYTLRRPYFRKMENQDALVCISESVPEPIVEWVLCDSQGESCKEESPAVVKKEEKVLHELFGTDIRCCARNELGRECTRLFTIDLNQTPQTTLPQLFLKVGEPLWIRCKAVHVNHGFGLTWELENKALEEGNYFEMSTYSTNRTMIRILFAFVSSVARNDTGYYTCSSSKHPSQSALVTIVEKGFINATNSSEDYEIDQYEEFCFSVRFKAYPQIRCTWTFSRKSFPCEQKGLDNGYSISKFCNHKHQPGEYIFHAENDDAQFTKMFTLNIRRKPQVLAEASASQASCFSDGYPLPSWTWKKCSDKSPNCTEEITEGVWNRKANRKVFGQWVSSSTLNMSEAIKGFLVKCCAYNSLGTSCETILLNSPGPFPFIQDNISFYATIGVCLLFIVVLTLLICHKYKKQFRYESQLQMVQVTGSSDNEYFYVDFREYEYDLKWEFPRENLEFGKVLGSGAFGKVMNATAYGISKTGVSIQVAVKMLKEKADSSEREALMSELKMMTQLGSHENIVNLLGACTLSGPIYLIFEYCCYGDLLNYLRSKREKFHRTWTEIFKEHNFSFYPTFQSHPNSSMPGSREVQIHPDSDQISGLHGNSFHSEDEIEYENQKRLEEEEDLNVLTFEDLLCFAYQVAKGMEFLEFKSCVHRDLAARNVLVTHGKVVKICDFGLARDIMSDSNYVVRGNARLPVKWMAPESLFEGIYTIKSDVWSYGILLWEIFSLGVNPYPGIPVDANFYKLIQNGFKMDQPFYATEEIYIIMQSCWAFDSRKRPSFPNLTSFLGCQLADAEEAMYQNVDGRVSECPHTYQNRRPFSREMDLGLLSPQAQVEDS
Serine/threonine-protein kinase PAK 2 (Homo sapiens), sequence (Q13177 whole entry): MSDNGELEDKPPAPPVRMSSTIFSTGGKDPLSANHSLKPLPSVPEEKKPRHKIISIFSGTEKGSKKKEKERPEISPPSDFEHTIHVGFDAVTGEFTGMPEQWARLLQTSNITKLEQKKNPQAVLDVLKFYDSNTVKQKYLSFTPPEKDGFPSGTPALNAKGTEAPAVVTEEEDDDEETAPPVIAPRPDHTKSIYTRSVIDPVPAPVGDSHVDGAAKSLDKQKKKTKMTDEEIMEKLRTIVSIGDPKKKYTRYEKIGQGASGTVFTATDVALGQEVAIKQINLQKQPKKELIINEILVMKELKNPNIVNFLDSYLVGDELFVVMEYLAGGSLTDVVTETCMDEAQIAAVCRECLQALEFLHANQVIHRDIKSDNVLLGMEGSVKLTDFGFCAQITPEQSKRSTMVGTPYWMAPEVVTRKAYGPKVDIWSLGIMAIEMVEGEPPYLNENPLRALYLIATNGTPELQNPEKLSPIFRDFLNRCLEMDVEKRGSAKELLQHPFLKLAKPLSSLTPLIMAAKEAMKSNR
Platelet-derived growth factor receptor alpha, sequence (P16234 whole entry): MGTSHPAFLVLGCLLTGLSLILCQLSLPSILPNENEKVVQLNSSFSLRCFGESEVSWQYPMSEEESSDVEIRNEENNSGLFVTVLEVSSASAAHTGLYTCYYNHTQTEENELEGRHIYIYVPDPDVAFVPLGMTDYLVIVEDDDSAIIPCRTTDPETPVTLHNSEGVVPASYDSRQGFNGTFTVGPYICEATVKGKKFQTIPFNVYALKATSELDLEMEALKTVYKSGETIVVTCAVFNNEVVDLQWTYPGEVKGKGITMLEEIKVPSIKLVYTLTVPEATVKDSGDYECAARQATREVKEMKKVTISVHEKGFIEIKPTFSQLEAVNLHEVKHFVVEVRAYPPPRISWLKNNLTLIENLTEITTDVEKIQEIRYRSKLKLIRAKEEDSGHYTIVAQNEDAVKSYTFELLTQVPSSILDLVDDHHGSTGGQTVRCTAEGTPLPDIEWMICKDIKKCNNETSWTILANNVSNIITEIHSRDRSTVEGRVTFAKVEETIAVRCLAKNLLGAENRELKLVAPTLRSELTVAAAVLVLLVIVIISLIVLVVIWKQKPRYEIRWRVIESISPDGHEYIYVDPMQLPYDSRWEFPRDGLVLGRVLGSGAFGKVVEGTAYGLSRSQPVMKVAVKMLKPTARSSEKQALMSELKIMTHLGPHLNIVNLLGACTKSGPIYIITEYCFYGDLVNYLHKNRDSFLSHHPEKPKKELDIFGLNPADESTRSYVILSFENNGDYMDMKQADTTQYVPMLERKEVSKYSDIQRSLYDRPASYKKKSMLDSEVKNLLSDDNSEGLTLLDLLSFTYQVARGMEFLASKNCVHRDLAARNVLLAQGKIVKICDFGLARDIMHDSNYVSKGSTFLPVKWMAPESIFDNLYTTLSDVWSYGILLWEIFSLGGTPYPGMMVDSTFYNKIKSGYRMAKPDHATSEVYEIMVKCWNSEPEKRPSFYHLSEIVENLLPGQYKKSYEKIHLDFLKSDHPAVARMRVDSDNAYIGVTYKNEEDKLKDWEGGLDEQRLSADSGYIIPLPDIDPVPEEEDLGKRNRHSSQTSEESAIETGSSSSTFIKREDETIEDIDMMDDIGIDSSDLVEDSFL

On to `CCC(=O)N1CCN(c2ccc(-n3c(=O)ccc4cnc5ccc(-c6cnc7ccccc7c6)cc5c43)cc2C(F)(F)F)CC1`, for which the % of control in assay [1] amounted to 16%.

`Cc1cnc(Nc2ccc(F)cc2Cl)nc1-c1c[nH]c(C(=O)N[C@H](CO)c2cccc(Cl)c2)c1`: the % of inhibition in assay [2] came to 3%.

Consider `Cc1cc(CN)cc(C)c1-c1ncn(C)c1-c1cncn1C`, for which the % activity in assay [3] (at 1 µM) is above 90%; in assay [3] (at 10 µM), above 80%.

For the compound `C=CC(=O)Nc1cc(-n2c(=O)ccc3cnc4ccc(-c5ccc(NS(C)(=O)=O)cc5)cc4c32)ccc1C`, the results for the % of control in assay [4] (at 1 µM) and in assay [4] (at 10 µM) were 86% and 97%, respectively.

Turning to `CNC(=O)Nc1ccc(-c2nc(N3CC4CCC(C3)O4)c3cnn(C4CCC5(CC4)OCCO5)c3n2)cc1`, the % of control in assay [5] came to 35%; in assay [6] it was 99%.

In turn, `COc1cc(N(C)c2ccnc3ccc(C(F)(F)F)cc23)cc(OC)c1OC` came in with a % binding in assay [7] of 100%.

On to `N#Cc1cccc(-c2c[nH]c3ncnc(N4CCOCC4)c23)c1`, for which, in assay [8], the % of control was 70%.
